Patent US11999745B2, “Pharmaceutical compounds” (Heptares Therapeutics Limited, priority 2020, dated 2024)
In brackets after ≈: the same amount, converted by molar mass. Several values for one entry are separate records, joined by “and”; a condition that tells them apart may be missing. Identical values can stand only once. Like-named read-outs stand apart in the source and are kept apart here.

Key:
[1] = Hepatocyte stability, CLint (in vitro hepatocytes), monkey; format: in vitro ADME; settings: pooled cryopreserved hepatocytes, 1.0 million cells/mL, 37° C., read-out: in vitro intrinsic clearance (CLint)
Method: (§1) Hepatocyte stability assays were performed using pooled cryopreserved hepatocytes (Bioreclamation). Test compounds prepared in DMSO, were incubated at an initial concentration of 1 μM (0.25% DMSO final, n=2) with hepatocytes at cell densities of 1.0 million cells/mL at 37° C. Aliquots were removed at 0.5, 5, 10, 15, 30, 60 and 120 minutes for termination of reactions and compound extraction with acetonitrile containing an analytical internal standard (0.5 μM carbamazepine). Samples were centrifuged and the supernatant fractions analysed for parent compound by mass spectrometry (LC-MS/MS). The amount of compound remaining (expressed as %) was determined from the MS response in each sample relative to that in the T=0 samples (normalised for internal standard). Ln plots of the % remaining were used to determine the half-life for compound disappearance using the relationship: Half-Life(min)=−0.693/λ (where λ is the slope of the Ln % remaining vs time curve).

[2] = Hepatocyte stability, CLint (in vitro hepatocytes), mouse; format: in vitro ADME; settings: pooled cryopreserved hepatocytes, 1.0 million cells/mL, 37° C., read-out: in vitro intrinsic clearance (CLint)
Method: as §1

[3] = Aqueous solubility (thermodynamic), LCMS/MS method; format: physicochemical; settings: 1 mg/mL theoretical, individual replicates; for solubility thermodynamic at 4 h: 25 °C, thermodynamic from solid
Method: A 10 mM stock solution (in DMSO) was prepared for the test sample. From the 10 mM stock solution, a working solution of 1 μM was prepared by diluting the test sample in mobile phase solution (typically, methanol: 2 mM ammonium acetate containing suitable internal standard (IS)—carbamazepine/any other suitable IS). Further, the working solution was serially diluted in mobile phase solution up to 5 to 6 linearity point to prepare standard solution for plotting calibration curve. The area for each standard sample is analyzed in singlet using LCMS/MS. The normalized area values are plotted vs. concentration to achieve calibration equation to determine the unknown sample. […] Test compound was dispersed in buffer solution using a vortex mixer.
The resulting solution are then kept on RotoSpin (shaker) at 50 rpm for 4 hours for TD solubility at room temperature (25° C.). After the incubation period, the solution is filtered using 0.45 micron PVDF injector filters in order to remove the insoluble fraction of the compound. Filtrate is diluted in mobile phase and subsequently the AUC is ascertained for diluted samples using LCMS/MS. From the AUC of test sample the corresponding concentration is calculated using 5 to 6 point linearity/calibration curve.
All numbers reported as uM.

MDR1 (P-glycoprotein) = assay: MDCK permeability/efflux; format: in vitro ADME; settings: dog
Method: MDR1-MDCK cells (Solvo Biotechnology) were seeded onto 24-well Transwell plates at 2.35×10^5 cells per well and used in confluent monolayers after a 3 day culture at 37° C. under 5% CO2. For cell types, test and control compounds (propranolol, vinblastine) were added (1 μM, 0.1% DMSO final, n=2) to donor compartments of the Transwell plate assembly in assay buffer (Hanks balanced salt solution supplemented with 25 mM HEPES, adjusted to pH 7.4) for both apical to basolateral (A>B) and basolateral to apical (B>A) measurements. Incubations were performed at 37° C., with samples removed from both donor and acceptor chambers at T=0 and 1 hour and compound analysed by mass spectrometry (LC-MS/MS) including an analytical internal standard.
Apparent permeability (Papp) values were determined from the relationship: Papp=(CompoundAcceptor T=end/(CompoundDonor×VDonorγIncubation Time)×VDonor Area×60×10^−6 cm/s
Where V is the volume of each Transwell compartment (apical 125 μL, basolateral 600 μL), and concentrations are the relative MS responses for compound (normalized to internal standard) in the donor chamber before incubation and acceptor chamber at the end of the incubation. Area=area of cells exposed for drug transfer (0.33 cm^2). Efflux ratio (Papp B>A /Papp A>B) was calculated from the mean Papp values in each direction. […] Lucifer Yellow (LY) was added to the apical buffer in all wells to assess viability of the cell layer. […] Compound recovery from the wells was determined from MS responses (normalized to internal standard) in donor and acceptor chambers at the end of incubation compared to response in the donor chamber pre-incubation.

[4] = Unbound brain/unbound plasma concentration ratio (Kp,uu); format: in vivo; settings: brain and plasma (unbound); measured unbound plasma:brain distribution; parameter used in prediction; read-out: Kpuu (unbound brain/unbound plasma concentration)
From the text: Kp,uu—ratio of unbound brain concentration/unbound plasma concentration. Quantifies the net flux of drug across the blood brain barrier, including the quantitative role of transporters, without being confounded by nonspecific binding in plasma and brain tissues. Gupta et al, DMD, 2006; Hammarlund-Udenaes et al, PharmRes, 2008

[5] = Hepatocyte stability, CLint (in vitro hepatocytes), rat; format: in vitro ADME; settings: pooled cryopreserved hepatocytes, 1.0 million cells/mL, 37° C., read-out: in vitro intrinsic clearance (CLint)
Method: as §1

In the case of `CC(C)(C)NC(=O)C1CCN([C@H]2C[C@H]3CC[C@@H](C2)N3c2nc(C(F)(F)F)no2)CC1` [Example 1, N-tert-butyl-1-{(1R,3r,5S)-8-[3-(trifluoromethyl)-1,2,4-oxadiazol-5-yl]-8-azabicyclo[3.2.1]octan-3-yl}piperidine-4-carboxamide], the hepatocyte CLint at 1 μM [1] is reported as less than 5 µL/min/1e6 cells, the hepatocyte CLint at 1 μM [2] is reported as 7 µL/min/1e6 cells and the “Thermodynamic solubility, Blank FaSSIF pH 6.5 (n = 4)” value ([3]; Blank FaSSIF (Aq. Buffer) pH 6.5, 4 hours, 25° C.) is reported as 1941 uM and 1937 uM and 2022 uM. The solubility thermodynamic at 4 h ([3]; Blank FaSSIF (aqueous buffer), pH 6.5, aqueous buffer, Blank FaSSIF (Aq. Buffer) pH 6.5, 4 hours, read-out: Thermodynamic solubility, Blank FaSSIF pH 6.5 (n = 4)) was 1740 µM (≈ 749 µg/mL), the “Thermodynamic solubility, FaSSIF pH 6.5 (n = 4)” value ([3]; FaSSIF pH 6.5, 4 hours, 25° C.) was 2448 uM and 1713 uM and 2104 uM and the solubility thermodynamic at 4 h ([3]; FaSSIF, pH 6.5, fassif, FaSSIF pH 6.5, 4 hours, read-out: Thermodynamic solubility, FaSSIF pH 6.5 (n = 4)) was 2010 µM (≈ 862 µg/mL). For the same compound, the “Thermodynamic solubility, SGF pH 1.2 (n = 4)” value ([3]; SGF pH 1.2, 4 hours, 25° C.) was 1988 uM and 1702 uM and 2039 uM, the solubility thermodynamic at 4 h ([3]; SGF, pH 1.2, simulated gastric fluid, SGF pH 1.2, 4 hours, read-out: Thermodynamic solubility, SGF pH 1.2 (n = 4)) was 2080 µM (≈ 893 µg/mL) and the Papp A→B at 1 h, 1 μM (MDR1 (P-glycoprotein); apical to basolateral, 1 μM, pH 7.4, 1 hour, read-out: Apparent permeability (Papp) A−B) was 66 ×10⁻⁶ cm/s. The Papp B→A at 1 h, 1 μM (MDR1 (P-glycoprotein); basolateral to apical, 1 μM, pH 7.4, 1 hour, read-out: Apparent permeability (Papp) B−A) was 77 ×10⁻⁶ cm/s, the efflux ratio at 1 h, 1 μM (MDR1 (P-glycoprotein); pH 7.4, read-out: B−A/A−B efflux ratio) was 1.2 and the Kp uu [4] was 1. For the same compound, the hepatocyte CLint at 1 μM [5] was 8 µL/min/1e6 cells.
